Columns and labels:
Assay in all cases: relative viability (nuclei count vs DMSO), 5 days (fraction); higher = more cells survive
[1] = compound: C1=CC2=NC=CN=C2C=C1/C=C/3\C(=O)NC(=O)S3 + CCNC(=O)c1noc(-c2cc(C(C)C)c(O)cc2O)c1-c1ccc(CN2CCOCC2)cc1 [Luminespib] (partner 0.01 µM)
How it was run: (§1)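 A single step with final 0.05% Triton X-100, 1% formaldehyde and 1 ug/ml Hoechst fixed the cells and stained nuclei 5 days after treatment. Lung cancer cell lines in 1536-well plates had been treated by pin tool the day after seeding with one drug alone or a fixed anchor-drug dose plus five library-drug doses (not always all listed) in √10 steps, and nuclei were counted on 4× images. Relative viability is the ratio of nuclei in treated wells to nuclei in vehicle wells, taken as the median of duplicate plates.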

BGJ398 + AZD7762 = compound: CCN1CCN(c2ccc(Nc3cc(N(C)C(=O)Nc4c(Cl)c(OC)cc(OC)c4Cl)ncn3)cc2)CC1 [BGJ398] + NC(=O)Nc1cc(-c2cccc(F)c2)sc1C(=O)N[C@H]1CCCNC1 [AZD7762] (partner 0.2 µM)
How it was run: as §1

[2] = compound: C1=CC2=NC=CN=C2C=C1/C=C/3\C(=O)NC(=O)S3 + CS(=O)(=O)N1CCN(Cc2cc3nc(-c4cccc5[nH]ncc45)nc(N4CCOCC4)c3s2)CC1 [Pictilisib] (partner 1 µM)
How it was run: as §1

BGJ398 + OSI-027 = compound: CCN1CCN(c2ccc(Nc3cc(N(C)C(=O)Nc4c(Cl)c(OC)cc(OC)c4Cl)ncn3)cc2)CC1 [BGJ398] + COc1cccc2cc(-c3nc([C@H]4CC[C@H](C(=O)O)CC4)n4ncnc(N)c34)[nH]c12 [OSI-027] (partner 0.5 µM)
How it was run: as §1

Cell Line | relative viability ([1]; first compound 0.02 µM) | relative viability ([1]; first compound 0.06325 µM) | relative viability ([1]; first compound 0.2 µM) | relative viability ([1]; first compound 0.6325 µM) | relative viability ([1]; first compound 2 µM) | relative viability (BGJ398 + AZD7762; first compound 0.01 µM) | relative viability (BGJ398 + AZD7762; first compound 0.03162 µM) | relative viability (BGJ398 + AZD7762; first compound 0.1 µM) | relative viability (BGJ398 + AZD7762; first compound 0.3162 µM) | relative viability (BGJ398 + AZD7762; first compound 1 µM) | relative viability ([2]; first compound 0.02 µM) | relative viability ([2]; first compound 0.06325 µM) | relative viability ([2]; first compound 0.2 µM) | relative viability ([2]; first compound 0.6325 µM) | relative viability ([2]; first compound 2 µM) | relative viability (BGJ398 + OSI-027; first compound 0.01 µM) | relative viability (BGJ398 + OSI-027; first compound 0.03162 µM) | relative viability (BGJ398 + OSI-027; first compound 0.1 µM) | relative viability (BGJ398 + OSI-027; first compound 0.3162 µM) | relative viability (BGJ398 + OSI-027; first compound 1 µM)
LCLC-97TM1 | 0.767 | 0.839 | 0.823 | 0.671 | 0.499 | 0.251 | 0.217 | 0.225 | 0.208 | 0.249 | 0.186 | 0.185 | 0.21 | 0.141 | 0.178 | 0.381 | 0.578 | 0.464 | 0.567 | 0.528
LCLC-103H | 1.02 | 0.966 | 0.906 | 0.966 | 0.806 | 0.796 | 0.86 | 0.804 | 0.658 | 0.656 | 0.61 | 0.768 | 0.706 | 0.539 | 0.531 | 0.495 | 0.406 | 0.44 | 0.367 | 0.382
LK-2 | 0.186 | 0.202 | 0.28 | 0.175 | 0.175 | 0.296 | 0.329 | 0.16 | 0.165 | 0.13 | 0.678 | 0.587 | 0.596 | 0.497 | 0.392 | 0.18 | 0.181 | 0.155 | 0.121 | 0.176
LOU-NH91 | 0.363 | 0.344 | 0.334 | 0.346 | 0.314 | 0.753 | 0.779 | 0.752 | 0.664 | 0.762 | 0.528 | 0.535 | 0.535 | 0.498 | 0.484 | 0.667 |  | 0.734 | 0.478 | 0.728
LU99A | 0.296 | 0.207 | 0.294 | 0.267 | 0.24 | 0.429 | 0.336 | 0.4 | 0.234 | 0.273 | 0.33 | 0.365 | 0.317 | 0.341 | 0.245 | 0.268 | 0.284 | 0.281 | 0.308 | 0.332
LXF-289 | 0.638 | 0.738 | 0.693 | 0.642 | 0.561 | 1.02 | 1.03 | 1.06 | 0.978 | 1.06 | 0.723 | 0.843 | 0.801 | 0.771 | 0.635 | 0.708 | 0.795 | 0.806 | 0.768 | 0.799
NCI-H23 | 0.254 | 0.219 | 0.219 | 0.217 | 0.184 | 0.228 | 0.267 | 0.252 | 0.232 | 0.225 | 0.396 | 0.688 | 0.557 | 0.517 | 0.504 | 0.588 | 0.726 | 0.692 | 0.518 | 0.569
NCI-H322M | 0.95 | 0.76 | 0.707 | 0.8 | 0.522 | 0.689 | 0.46 | 0.577 | 0.607 | 0.601 | 0.477 | 0.476 | 0.586 | 0.518 | 0.434 | 0.531 | 0.542 | 0.627 | 0.495 | 0.501

Reference: the supplement of paper PMC10307832
